Experimental data from US20240238299A1, “USE OF PYRROLOPYRIMIDINE COMPOUND” (GUANGZHOU JOYO PHARMATECH CO., LTD, priority 2021, published 2024).

System: MOG35-55-induced experimental autoimmune encephalomyelitis (EAE) mouse model
Assay: MOG35-55-induced EAE mouse model, clinical scoring and incidence
Assay type: in vivo, C57BL/6 mice
Details: for inhibition rate of AUC for clinical scoring: 14 days, vs vehicle control

## CN(c1ncnc2[nH]ccc12)[C@@H]1CCc2cc(C#N)nn2C1 [Compound I]
3 mg/kg BID oral
  inhibition rate of AUC for clinical scoring: 44%
10 mg/kg BID oral
  inhibition rate of AUC for clinical scoring: 77%
20 mg/kg BID oral
  inhibition rate of AUC for clinical scoring: 63%
20 mg/kg QD oral
  inhibition rate of AUC for clinical scoring: 60%
G5, 3 mg/kg BID oral, day 0
  EAE clinical scoring, Mean: 0.00
  incidence of EAE: 0%
G5, 3 mg/kg BID oral, day 2
  EAE clinical scoring, Mean: 0.00
  incidence of EAE: 0%
G5, 3 mg/kg BID oral, day 4
  EAE clinical scoring, Mean: 0.00
  incidence of EAE: 0%
G5, 3 mg/kg BID oral, day 7
  EAE clinical scoring, Mean: 0.00
  incidence of EAE: 0%
G5, 3 mg/kg BID oral, day 9
  EAE clinical scoring, Mean: 0.00
  incidence of EAE: 0%
G5, 3 mg/kg BID oral, day 11
  EAE clinical scoring, Mean: 0.00
  incidence of EAE: 0%
G5, 3 mg/kg BID oral, day 12
  EAE clinical scoring, Mean: 0.00
  incidence of EAE: 0%
G5, 3 mg/kg BID oral, day 13
  EAE clinical scoring, Mean: 0.20
  incidence of EAE: 20%
G5, 3 mg/kg BID oral, day 14
  EAE clinical scoring, Mean: 0.40
  incidence of EAE: 40%
G5, 3 mg/kg BID oral, day 15
  EAE clinical scoring, Mean: 0.60
  incidence of EAE: 60%
G5, 3 mg/kg BID oral, day 16
  EAE clinical scoring, Mean: 0.90
  incidence of EAE: 70%
G5, 3 mg/kg BID oral, day 17
  EAE clinical scoring, Mean: 1.50
  incidence of EAE: 80%
G5, 3 mg/kg BID oral, day 18
  EAE clinical scoring, Mean: 1.90
  incidence of EAE: 90%
G5, 3 mg/kg BID oral, day 19
  EAE clinical scoring, Mean: 1.90
  incidence of EAE: 100%
G5, 3 mg/kg BID oral, day 20
  EAE clinical scoring, Mean: 1.30
  incidence of EAE: 70%
G5, 3 mg/kg BID oral, day 21
  EAE clinical scoring, Mean: 1.10
  incidence of EAE: 60%
G5, 3 mg/kg BID oral, day 22
  EAE clinical scoring, Mean: 1.10
  incidence of EAE: 60%
G5, 3 mg/kg BID oral, day 23
  EAE clinical scoring, Mean: 1.00
  incidence of EAE: 60%
G5, 3 mg/kg BID oral, day 24
  EAE clinical scoring, Mean: 0.80
  incidence of EAE: 50%
G5, 3 mg/kg BID oral, day 25
  EAE clinical scoring, Mean: 0.80
  incidence of EAE: 50%
G5, 3 mg/kg BID oral, day 26
  EAE clinical scoring, Mean: 0.80
  incidence of EAE: 50%
G5, 3 mg/kg BID oral, day 27
  EAE clinical scoring, Mean: 0.60
  incidence of EAE: 30%
G6, 10 mg/kg BID oral, day 0
  EAE clinical scoring, Mean: 0.00
  incidence of EAE: 0%
G6, 10 mg/kg BID oral, day 2
  EAE clinical scoring, Mean: 0.00
  incidence of EAE: 0%
G6, 10 mg/kg BID oral, day 4
  EAE clinical scoring, Mean: 0.00
  incidence of EAE: 0%
G6, 10 mg/kg BID oral, day 7
  EAE clinical scoring, Mean: 0.00
  incidence of EAE: 0%
G6, 10 mg/kg BID oral, day 9
  EAE clinical scoring, Mean: 0.00
  incidence of EAE: 0%
G6, 10 mg/kg BID oral, day 11
  EAE clinical scoring, Mean: 0.00
  incidence of EAE: 0%
G6, 10 mg/kg BID oral, day 12
  EAE clinical scoring, Mean: 0.00
  incidence of EAE: 0%
G6, 10 mg/kg BID oral, day 13
  EAE clinical scoring, Mean: 0.20
  incidence of EAE: 20%
G6, 10 mg/kg BID oral, day 14
  EAE clinical scoring, Mean: 0.40
  incidence of EAE: 40%
G6, 10 mg/kg BID oral, day 15
  EAE clinical scoring, Mean: 0.50
  incidence of EAE: 50%
G6, 10 mg/kg BID oral, day 16
  EAE clinical scoring, Mean: 0.60
  incidence of EAE: 50%
G6, 10 mg/kg BID oral, day 17
  EAE clinical scoring, Mean: 0.50
  incidence of EAE: 40%
G6, 10 mg/kg BID oral, day 18
  EAE clinical scoring, Mean: 0.60
  incidence of EAE: 40%
G6, 10 mg/kg BID oral, day 19
  EAE clinical scoring, Mean: 0.40
  incidence of EAE: 20%
G6, 10 mg/kg BID oral, day 20
  EAE clinical scoring, Mean: 0.30
  incidence of EAE: 10%
G6, 10 mg/kg BID oral, day 21
  EAE clinical scoring, Mean: 0.30
  incidence of EAE: 20%
G6, 10 mg/kg BID oral, day 22
  EAE clinical scoring, Mean: 0.30
  incidence of EAE: 20%
G6, 10 mg/kg BID oral, day 23
  EAE clinical scoring, Mean: 0.40
  incidence of EAE: 30%
G6, 10 mg/kg BID oral, day 24
  EAE clinical scoring, Mean: 0.40
  incidence of EAE: 30%
G6, 10 mg/kg BID oral, day 25
  EAE clinical scoring, Mean: 0.40
  incidence of EAE: 30%
G6, 10 mg/kg BID oral, day 26
  EAE clinical scoring, Mean: 0.40
  incidence of EAE: 30%
G6, 10 mg/kg BID oral, day 27
  EAE clinical scoring, Mean: 0.30
  incidence of EAE: 30%
G7, 20 mg/kg BID oral, day 0
  EAE clinical scoring, Mean: 0.00
  incidence of EAE: 0%
G7, 20 mg/kg BID oral, day 2
  EAE clinical scoring, Mean: 0.00
  incidence of EAE: 0%
G7, 20 mg/kg BID oral, day 4
  EAE clinical scoring, Mean: 0.00
  incidence of EAE: 0%
G7, 20 mg/kg BID oral, day 7
  EAE clinical scoring, Mean: 0.00
  incidence of EAE: 0%
G7, 20 mg/kg BID oral, day 9
  EAE clinical scoring, Mean: 0.00
  incidence of EAE: 0%
G7, 20 mg/kg BID oral, day 11
  EAE clinical scoring, Mean: 0.00
  incidence of EAE: 0%
G7, 20 mg/kg BID oral, day 12
  EAE clinical scoring, Mean: 0.00
  incidence of EAE: 0%
G7, 20 mg/kg BID oral, day 13
  EAE clinical scoring, Mean: 0.30
  incidence of EAE: 30%
G7, 20 mg/kg BID oral, day 14
  EAE clinical scoring, Mean: 0.60
  incidence of EAE: 50%
G7, 20 mg/kg BID oral, day 15
  EAE clinical scoring, Mean: 0.80
  incidence of EAE: 60%
G7, 20 mg/kg BID oral, day 16
  EAE clinical scoring, Mean: 0.90
  incidence of EAE: 60%
G7, 20 mg/kg BID oral, day 17
  EAE clinical scoring, Mean: 1.00
  incidence of EAE: 70%
G7, 20 mg/kg BID oral, day 18
  EAE clinical scoring, Mean: 1.10
  incidence of EAE: 80%
G7, 20 mg/kg BID oral, day 19
  EAE clinical scoring, Mean: 1.10
  incidence of EAE: 80%
G7, 20 mg/kg BID oral, day 20
  EAE clinical scoring, Mean: 0.90
  incidence of EAE: 70%
G7, 20 mg/kg BID oral, day 21
  EAE clinical scoring, Mean: 0.80
  incidence of EAE: 60%
G7, 20 mg/kg BID oral, day 22
  EAE clinical scoring, Mean: 0.50
  incidence of EAE: 30%
G7, 20 mg/kg BID oral, day 23
  EAE clinical scoring, Mean: 0.50
  incidence of EAE: 30%
G7, 20 mg/kg BID oral, day 24
  EAE clinical scoring, Mean: 0.30
  incidence of EAE: 10%
G7, 20 mg/kg BID oral, day 25
  EAE clinical scoring, Mean: 0.30
  incidence of EAE: 10%
G7, 20 mg/kg BID oral, day 26
  EAE clinical scoring, Mean: 0.30
  incidence of EAE: 10%
G7, 20 mg/kg BID oral, day 27
  EAE clinical scoring, Mean: 0.30
  incidence of EAE: 10%
G8, 20 mg/kg QD oral, day 0
  EAE clinical scoring, Mean: 0.00
  incidence of EAE: 0%
G8, 20 mg/kg QD oral, day 2
  EAE clinical scoring, Mean: 0.00
  incidence of EAE: 0%
G8, 20 mg/kg QD oral, day 4
  EAE clinical scoring, Mean: 0.00
  incidence of EAE: 0%
G8, 20 mg/kg QD oral, day 7
  EAE clinical scoring, Mean: 0.00
  incidence of EAE: 0%
G8, 20 mg/kg QD oral, day 9
  EAE clinical scoring, Mean: 0.00
  incidence of EAE: 0%
G8, 20 mg/kg QD oral, day 11
  EAE clinical scoring, Mean: 0.00
  incidence of EAE: 0%
G8, 20 mg/kg QD oral, day 12
  EAE clinical scoring, Mean: 0.00
  incidence of EAE: 0%
G8, 20 mg/kg QD oral, day 13
  EAE clinical scoring, Mean: 0.20
  incidence of EAE: 20%
G8, 20 mg/kg QD oral, day 14
  EAE clinical scoring, Mean: 0.60
  incidence of EAE: 50%
G8, 20 mg/kg QD oral, day 15
  EAE clinical scoring, Mean: 1.10
  incidence of EAE: 70%
G8, 20 mg/kg QD oral, day 16
  EAE clinical scoring, Mean: 1.30
  incidence of EAE: 70%
G8, 20 mg/kg QD oral, day 17
  EAE clinical scoring, Mean: 1.40
  incidence of EAE: 80%
G8, 20 mg/kg QD oral, day 18
  EAE clinical scoring, Mean: 1.30
  incidence of EAE: 70%
G8, 20 mg/kg QD oral, day 19
  EAE clinical scoring, Mean: 1.10
  incidence of EAE: 70%
G8, 20 mg/kg QD oral, day 20
  EAE clinical scoring, Mean: 0.80
  incidence of EAE: 50%
G8, 20 mg/kg QD oral, day 21
  EAE clinical scoring, Mean: 0.70
  incidence of EAE: 50%
G8, 20 mg/kg QD oral, day 22
  EAE clinical scoring, Mean: 0.40
  incidence of EAE: 40%
G8, 20 mg/kg QD oral, day 23
  EAE clinical scoring, Mean: 0.40
  incidence of EAE: 40%
G8, 20 mg/kg QD oral, day 24
  EAE clinical scoring, Mean: 0.30
  incidence of EAE: 30%
G8, 20 mg/kg QD oral, day 25
  EAE clinical scoring, Mean: 0.30
  incidence of EAE: 30%
G8, 20 mg/kg QD oral, day 26
  EAE clinical scoring, Mean: 0.30
  incidence of EAE: 30%
G8, 20 mg/kg QD oral, day 27
  EAE clinical scoring, Mean: 0.30
  incidence of EAE: 30%
Twice daily (BID), oral, EAE clinical symptoms
  effective dose starting at: 3 mg/kg
